In ChEMBL document CHEMBL1201862, “PubChem BioAssay data set” (2004):
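Exposure lasted 48 hours, with cells grown in 96-well plates and compounds tested at five concentrations. GI50 = concentration required for 50% inhibition of growth.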 Calls of active or inactive are those of the source. Cut-off read from the data, not from the text of the source: active = GI50 up to about 1.1 µM and inactive = higher.

Tests used:
Assay in all cases: NCI anticancer screen, dose series, 48 h
SNB-19 = tested on: SNB-19
NCI-H226 = tested on: NCI-H226
UACC-257 = tested on: UACC-257
ACHN = tested on: ACHN
RXF 393 = tested on: RXF 393
NCI-H522 = tested on: NCI-H522
SK-MEL-5 = tested on: SK-MEL-5
SK-OV-3 = tested on: SK-OV-3
SN12C = tested on: SN12C
SW-620 = tested on: SW-620
Malme-3M = tested on: Malme-3M
UO-31 = tested on: UO-31
HT-29 = tested on: HT-29
SF-539 = tested on: SF-539
U-251 = tested on: U-251
HOP-92 = tested on: HOP-92
RPMI-8226 = tested on: RPMI-8226
MDA-MB-231 = tested on: MDA-MB-231
MCF7 = tested on: MCF7
T47D = tested on: T47D

SMILES	GI50 (SNB-19)	GI50 (NCI-H226)	GI50 (UACC-257)	GI50 (ACHN)	GI50 (RXF 393)	GI50 (NCI-H522)	GI50 (SK-MEL-5)	GI50 (SK-OV-3)	GI50 (SN12C)	GI50 (SW-620)	GI50 (Malme-3M)	GI50 (UO-31)	GI50 (HT-29)	GI50 (SF-539)	GI50 (U-251)	GI50 (HOP-92)	GI50 (RPMI-8226)	GI50 (MDA-MB-231)	GI50 (MCF7)	GI50 (T47D)
CC#CC1C2CCCC1(CSc1ccccc1)NC(=O)O2 (configuration not stated)	> 100 µM (inactive)	> 100 µM (inactive)	> 100 µM (inactive)	> 100 µM (inactive)	> 100 µM (inactive)	> 100 µM (inactive)	> 100 µM (inactive)	> 100 µM (inactive)	> 100 µM (inactive)	> 100 µM (inactive)	> 100 µM (inactive)	> 100 µM (inactive)	> 100 µM (inactive)	> 100 µM (inactive)	> 100 µM (inactive)	> 100 µM (inactive)	63.8 µM (inactive)			
COc1cc(C2c3cc4c(cc3OC(O)C2C)OCO4)cc(OC)c1OC (configuration not stated)	0.434 µM (active)	0.708 µM (active)	9.68 µM (inactive)	0.792 µM (active)	0.244 µM (active)	0.207 µM (active)	0.272 µM (active)	0.414 µM (active)	0.446 µM (active)	0.292 µM (active)	0.431 µM (active)	0.695 µM (active)	0.346 µM (active)	0.294 µM (active)	0.33 µM (active)	0.562 µM (active)	0.264 µM (active)	0.532 µM (active)	0.29 µM (active)	
O=C1CN2C(c3ccccc3)=NN(c3ccc([N+](=O)[O-])cc3)C2(c2ccccc2)c2cc(Cl)ccc2N1CC1CC1 (configuration not stated)	> 100 µM (inactive)	> 100 µM (inactive)	> 100 µM (inactive)	> 100 µM (inactive)	> 100 µM (inactive)	> 100 µM (inactive)	> 100 µM (inactive)	> 100 µM (inactive)	> 100 µM (inactive)	> 100 µM (inactive)	> 100 µM (inactive)	> 100 µM (inactive)	> 100 µM (inactive)	> 100 µM (inactive)	> 100 µM (inactive)	> 100 µM (inactive)	29 µM (inactive)	> 100 µM (inactive)	> 100 µM (inactive)	
CC1Nc2ccccc2NC1C=C(C#N)C#N (configuration not stated)	17.9 µM (inactive)	17.3 µM (inactive)	> 10 µM (inactive)	18.3 µM (inactive)	16.6 µM (inactive)	10.9 µM (inactive)	17.1 µM (inactive)	21.8 µM (inactive)	15.6 µM (inactive)	12.2 µM (inactive)	16.7 µM (inactive)	15 µM (inactive)	16.7 µM (inactive)	13.2 µM (inactive)	16.1 µM (inactive)	15.1 µM (inactive)	4.58 µM (inactive)			
COc1ccc(C2=NN(c3ccccc3)C(c3cc4cc(Br)ccc4nc3Cl)C2)cc1 (configuration not stated)	> 25 µM (inactive)	> 25 µM (inactive)			> 25 µM (inactive)	16.7 µM (inactive)	> 25 µM (inactive)	> 25 µM (inactive)	> 25 µM (inactive)	24.9 µM (inactive)	> 25 µM (inactive)	> 25 µM (inactive)	> 25 µM (inactive)	> 25 µM (inactive)		> 25 µM (inactive)	> 25 µM (inactive)			> 25 µM (inactive)
c1cc2[se][se]c3c4cccc5[se][se]c(c(c1)c23)c54	> 100 µM (inactive)	> 100 µM (inactive)	> 100 µM (inactive)	> 100 µM (inactive)	> 100 µM (inactive)	> 100 µM (inactive)	> 100 µM (inactive)	> 100 µM (inactive)	> 100 µM (inactive)	> 100 µM (inactive)	> 100 µM (inactive)	> 100 µM (inactive)	> 100 µM (inactive)	> 100 µM (inactive)	> 100 µM (inactive)	> 100 µM (inactive)	> 100 µM (inactive)			
COC(=O)C1Cc2c([nH]c3ccccc23)C(c2ccccc2O)N1Cc1ccccc1 (configuration not stated)	> 31.6 µM (inactive)	35.7 µM (inactive)	33.7 µM (inactive)	28.4 µM (inactive)	20.8 µM (inactive)	16.4 µM (inactive)	27.2 µM (inactive)	30.8 µM (inactive)	36 µM (inactive)	39.5 µM (inactive)	> 31.6 µM (inactive)	31 µM (inactive)	28.2 µM (inactive)	27.8 µM (inactive)	20.6 µM (inactive)	22.6 µM (inactive)	> 100 µM (inactive)			
C/C=C1\CNC1C(=O)O (configuration not stated)	> 100 µM (inactive)		> 100 µM (inactive)	> 100 µM (inactive)			> 100 µM (inactive)	> 100 µM (inactive)	> 100 µM (inactive)	> 100 µM (inactive)	> 100 µM (inactive)	> 100 µM (inactive)	> 100 µM (inactive)	> 100 µM (inactive)		> 100 µM (inactive)	> 100 µM (inactive)		> 100 µM (inactive)	
CCC[C@H]1O[C@@H]2CC(=O)O[C@@H]2C2=C1C(=O)C=CC2=O	> 60.4 µM (inactive)	13.7 µM (inactive)	18.9 µM (inactive)	13.1 µM (inactive)	16 µM (inactive)	2.2 µM (inactive)	20.1 µM (inactive)	> 39.9 µM (inactive)	18.1 µM (inactive)	11.2 µM (inactive)	18.2 µM (inactive)	18.5 µM (inactive)	22 µM (inactive)	19.4 µM (inactive)	> 39.4 µM (inactive)	2.7 µM (inactive)	25.6 µM (inactive)			
O=c1n(CCCN2CCOCC2)nc2n1-c1ccc3ccccc3c1SC2	52.6 µM (inactive)	> 100 µM (inactive)	29.8 µM (inactive)		57.7 µM (inactive)	22.3 µM (inactive)	29.4 µM (inactive)	63.2 µM (inactive)	71.9 µM (inactive)	37.5 µM (inactive)		20.6 µM (inactive)	19 µM (inactive)	39.6 µM (inactive)	57.9 µM (inactive)	> 100 µM (inactive)	45.2 µM (inactive)		76.7 µM (inactive)	61.8 µM (inactive)
COCCN1C2=CCCCC2=Nc2c(N)nc(N)nc21	> 100 µM (inactive)	> 100 µM (inactive)	> 100 µM (inactive)	> 100 µM (inactive)	> 100 µM (inactive)	> 100 µM (inactive)	> 100 µM (inactive)	> 100 µM (inactive)	> 100 µM (inactive)		> 100 µM (inactive)	> 100 µM (inactive)	> 100 µM (inactive)	> 100 µM (inactive)	> 100 µM (inactive)	> 100 µM (inactive)	> 100 µM (inactive)			
CNC/C(Cl)=N/S(=O)(=O)c1ccc(C)cc1	20.4 µM (inactive)	19.5 µM (inactive)	9.27 µM (inactive)	15.8 µM (inactive)	2.2 µM (inactive)	6.58 µM (inactive)	15 µM (inactive)	22.8 µM (inactive)	9.75 µM (inactive)	9.16 µM (inactive)	9.66 µM (inactive)	12.1 µM (inactive)	19.2 µM (inactive)	9.71 µM (inactive)	6.93 µM (inactive)	14.8 µM (inactive)	6.61 µM (inactive)	13.7 µM (inactive)	7.94 µM (inactive)	
O=C1Nc2c(Cl)cc(Cl)cc2/C1=N/N=C/c1ccco1	80.7 µM (inactive)	23 µM (inactive)	44 µM (inactive)	34.1 µM (inactive)	32.1 µM (inactive)		29.6 µM (inactive)	67.3 µM (inactive)	26.6 µM (inactive)	37 µM (inactive)	56.6 µM (inactive)	20.5 µM (inactive)	28.8 µM (inactive)	29.1 µM (inactive)	27.7 µM (inactive)	27.4 µM (inactive)		20.3 µM (inactive)	20.2 µM (inactive)	
CC(=O)C1Cn2c(nc3ccccc32)C[Se]1 (configuration not stated)	5 µM (inactive)	3.72 µM (inactive)	2.48 µM (inactive)	3.39 µM (inactive)	2.34 µM (inactive)	3.28 µM (inactive)	2 µM (inactive)	19.5 µM (inactive)	4.43 µM (inactive)	5.28 µM (inactive)	2.47 µM (inactive)	3.1 µM (inactive)	7.48 µM (inactive)	2.29 µM (inactive)	2 µM (inactive)	2.09 µM (inactive)	25.3 µM (inactive)			
Nc1ccc2c(c1)N(C(=O)CCCC(=O)N1CC(CCl)c3ccc(N)cc31)CC2CCl (configuration not stated)	1.21 µM (inactive)	0.0226 µM (active)	1.26 µM (inactive)	0.112 µM (active)	0.195 µM (active)	0.0713 µM (active)	0.236 µM (active)	2.34 µM (inactive)	0.469 µM (active)	0.977 µM (active)	0.0883 µM (active)	0.561 µM (active)	0.946 µM (active)	0.461 µM (active)	0.513 µM (active)	1.97 µM (inactive)	0.26 µM (active)	1.43 µM (inactive)	0.333 µM (active)	
COC1(c2ccc(Cl)cc2)SC=C(C)n2c1noc2=O (configuration not stated)	> 100 µM (inactive)		> 100 µM (inactive)	> 100 µM (inactive)	> 100 µM (inactive)	89.5 µM (inactive)	> 100 µM (inactive)		> 100 µM (inactive)	> 100 µM (inactive)	> 100 µM (inactive)	> 100 µM (inactive)	33.8 µM (inactive)		> 100 µM (inactive)	> 100 µM (inactive)	> 100 µM (inactive)		> 100 µM (inactive)	
